Measurements from PubChem BioAssay (NCI).
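Exposure lasted 48 hours, with cells grown in 96-well plates and compounds tested at five concentrations. GI50 marks 50% less growth. TGI: total growth inhibition.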 Where a SMILES comes first, the peptide text is derived from it. [ ]: non-standard residue; d: D form. The star is where a group is joined. Bn2Val = CC(C)[C@@H](C(=O)*)N(Cc1ccccc1)Cc1ccccc1; NH(4-Cl-benzyl) = Clc1ccc(CN*)cc1; NMeV = CN[C@H](C(=O)O)C(C)C; dNMeA = CN[C@H](C)C(=O)O

Experiments:
Experiment in all cases: NCI tumour cell line growth inhibition, 48 h
[1] = system: HT29 colon
[2] = system: MDA-MB-231 breast
[3] = system: MOLT-4 leukemia
[4] = system: TK-10 renal
[5] = system: KM12 colon
[6] = system: U251 CNS
[7] = system: UACC-257 melanoma
[8] = system: RPMI-8226 leukemia
[9] = system: HCC-2998 colon
[10] = system: MALME-3M melanoma

Row | SMILES | TGI [1] | TGI [2] | TGI [3] | TGI [4] | TGI [5] | TGI [6] | TGI [7] | TGI [8] | TGI [9] | GI50 [1] | GI50 [2] | GI50 [3] | GI50 [4] | GI50 [5] | GI50 [10] | TGI [10] | GI50 [6] | GI50 [7] | GI50 [8]
1 | Cc1c(C(=O)OCc2ccccc2)[n+](=O)c2cc(Cl)c(Cl)cc2n1[O-] | 32.2 µM | 38.2 µM | 21.5 µM | 40.3 µM | 24.6 µM | > 100 µM | 29.6 µM | 21.2 µM | 28.5 µM |  |  |  |  |  |  |  |  |  | 
2 | Cc1nnc2n1N=C(c1ccc(Cl)cc1Cl)/C(=C/c1ccc(-c3ccc([N+](=O)[O-])cc3Cl)o1)S2 | > 100 µM | 30.6 µM | 33.6 µM | 34.8 µM | > 100 µM | 30.2 µM | 41.2 µM | 24.9 µM |  | 49.9 µM | 12.2 µM | 13.1 µM | 18.4 µM | 32.4 µM | 21.2 µM | 56.1 µM | 14.9 µM | 18.1 µM | 10.2 µM
3 | C=C(C)CC1(O[Si](C)(C)C)C(=O)C(OCC)=C1OCC (stereo not given) | > 100 µM | > 100 µM | > 100 µM | > 100 µM | > 100 µM | > 100 µM | > 100 µM |  |  |  |  |  |  |  |  | > 100 µM |  |  | 
4 | CN(Cc1cnc2nc(N)nc(N)c2n1)c1ccc(C(=O)NC(CO)CCCO)cc1 (stereo not given) | > 100 µM | > 100 µM | > 100 µM | > 100 µM | > 100 µM | > 100 µM | > 100 µM | > 100 µM |  |  |  |  |  |  |  | > 100 µM |  |  | 
5 | C=CCC1C(O[Si](C)(C)C(C)(C)C)C(CO[Si](C)(C)C(C)(C)C)OC1n1ccc(=O)[nH]c1=O (stereo not given) | 2.8 µM | 4.52 µM | 2.84 µM |  | > 100 µM | 5.66 µM | 3.37 µM | 4.89 µM | 3.27 µM |  |  |  |  |  |  |  |  |  | 
6 | CC1(C)CC(=O)C2(CC(CSc3ccccc3)C(CS(=O)(=O)c3ccccc3)C2)C(=O)C1 (stereo not given) | > 100 µM | > 100 µM | > 100 µM | > 100 µM | > 100 µM | > 100 µM | > 100 µM | > 100 µM | > 100 µM |  |  |  |  |  |  |  |  |  | 
7 | COc1ccc(Nc2ccc3ccccc3c2-c2c(O)ccc3ccccc23)cc1 | 29.6 µM | 45.7 µM | 34.3 µM | 75.3 µM | 29.5 µM | 56 µM | 58.9 µM | 27.4 µM | 29.1 µM |  |  |  |  |  |  |  |  |  | 
8 | COc1ccc(C(=O)CC(c2ccccc2)[C@H]2C(c3ccc(OC)cc3)=Nc3c(nc(SC)n(C)c3=O)NC2c2ccccc2)cc1 (stereo not given in full) | > 100 µM | > 100 µM | > 100 µM | > 100 µM | > 100 µM | > 100 µM | > 100 µM | > 100 µM | > 100 µM |  |  |  |  |  |  |  |  |  | 
9 | CCOP(=O)(OCC)/C(=C/c1cccs1)CC(C)=O | > 100 µM | > 100 µM | > 100 µM | > 100 µM | > 100 µM | > 100 µM | > 100 µM |  | > 100 µM |  |  |  |  |  |  | > 100 µM |  |  | 
10 | O=C(O)c1ccccc1N=Cc1ccc(N(CCCl)CCCl)cc1 | > 100 µM |  | > 100 µM |  | > 100 µM | > 100 µM | > 100 µM | > 100 µM | > 100 µM |  |  |  |  |  |  | > 100 µM |  |  | 
11 | C=CC[n+]1c2ccccc2n2cc([N+](=O)[O-])ccc21 | 39.4 µM | > 100 µM | 67.5 µM | > 100 µM | > 100 µM | > 100 µM | 44.6 µM |  | > 100 µM |  |  |  |  |  |  | 30.2 µM |  |  | 
12 | CCOP(=O)(O)CN1CCNCCN(CP(=O)(O)OCC)CCNCC1 | > 100 µM | > 100 µM | > 100 µM | > 100 µM | > 100 µM | > 100 µM | > 100 µM | > 100 µM |  |  |  |  |  |  |  |  |  |  | 
13 | C=CCP(=O)(CC=C)C(Cl)Cl | > 100 µM | > 100 µM | > 100 µM | > 100 µM |  | > 100 µM | > 100 µM | > 100 µM | > 100 µM |  |  |  |  |  |  |  |  |  | 
14 | COc1cccc(C=O)c1[O-].[O]=[U](=[O])([OH2+])[OH2+] | > 100 µM |  | 73.2 µM | 97.4 µM | > 100 µM | 59.1 µM | > 100 µM | > 100 µM | > 100 µM |  |  |  |  |  |  | > 100 µM |  |  | 
15 | C#CCn1c(=O)c(C)cn(/C(=C\C(=O)OCC)C(=O)OCC)c1=O | 4.03 µM | 31.2 µM | > 26.5 µM | 3.44 µM | 53.6 µM | 15 µM | 28.2 µM | > 23.2 µM |  |  |  |  |  |  |  | 5.6 µM |  |  | 
16 | COc1cc(C2C(Cl)C(=O)N2c2c(C)n(C)n(-c3ccccc3)c2=O)ccc1O (stereo not given) | 36 µM | 49.1 µM | 67 µM | 63.5 µM | 44.6 µM | 38 µM | 40.7 µM | 50.1 µM |  |  |  |  |  |  |  | 61.9 µM |  |  | 
17 | CN=C(/N=c1\ssc(=NC)n1C)N(C)C | > 100 µM |  | > 100 µM | > 100 µM | > 100 µM | > 100 µM | > 100 µM | > 100 µM | > 100 µM |  |  |  |  |  |  |  |  |  | 

Row | SMILES | TGI [1] | TGI [2] | TGI [3] | TGI [4] | TGI [5] | TGI [6] | TGI [7] | TGI [8] | TGI [9] | GI50 [1] | GI50 [2] | GI50 [3] | GI50 [4] | GI50 [5] | GI50 [10] | TGI [10] | GI50 [6] | GI50 [7] | GI50 [8]
18 | Cc1cc2c([nH]c3ccccc32)c(O)c1-c1c(C)cc2c([nH]c3ccccc32)c1O | 19.5 µM | 33 µM | 16.3 µM | 31.2 µM | 21.7 µM | 23.7 µM | 30.9 µM | 18.5 µM | 22.4 µM | 6.04 µM |  | 3.62 µM |  |  |  |  |  |  | 3.85 µM
19 | Cn1c(=O)oc2nc(-c3ccccc3)cc(C(F)(F)F)c21 | > 100 µM | > 100 µM | > 100 µM | > 100 µM | > 100 µM | > 100 µM | > 100 µM | > 100 µM | > 100 µM |  |  |  |  |  |  |  |  |  | 
20 | O=C(Nc1ccccc1C(=O)NCc1ccccc1)/C(=C/c1ccccc1)NC(=O)c1ccccc1 | > 100 µM | > 100 µM | > 100 µM | > 100 µM | > 100 µM | > 100 µM | > 100 µM | > 100 µM | > 100 µM |  |  |  |  |  |  |  |  |  | 
21 | CC(C)(C)OC(=O)NCC(CNC(=O)OC(C)(C)C)c1nc(C(N)=O)cs1 | > 100 µM | > 100 µM | > 100 µM | > 100 µM | > 100 µM | > 100 µM | > 100 µM |  | > 100 µM |  |  |  |  |  |  | > 100 µM |  |  | 
22 | COc1cccc(N[C@@H]2c3cc4c(cc3C(c3cc(OC)c(O)c(OC)c3)[C@H]3C(=O)OCC32)OCO4)c1 (stereo not given in full) | 10.5 µM |  | 0.164 µM |  | 7.06 µM | 13 µM | 34.3 µM | 2.08 µM | 3.79 µM |  |  |  |  |  |  | 20.7 µM |  |  | 
23 | Cc1nn(-c2ccccc2)c(C)c1/C=N/N=C1\S/C(=C\c2ccc(Cl)cc2)C(=O)N1c1ccccc1 | > 100 µM | > 100 µM | 27.2 µM | > 100 µM | > 100 µM | > 100 µM | > 100 µM | > 100 µM |  |  |  |  |  |  |  | > 100 µM |  |  | 
24 | NCc1cccc(O)c1O | > 100 µM |  | > 100 µM | > 100 µM | > 100 µM | > 100 µM | > 100 µM | > 100 µM |  |  |  |  |  |  |  | > 100 µM |  |  | 
25 | O=C1CC(=O)n2cnc3cccc(c32)N1 | > 100 µM | > 100 µM |  |  | > 100 µM | > 100 µM | > 100 µM | > 100 µM |  |  |  |  |  |  |  | > 100 µM |  |  | 
26 | CCN=C1C=CC(=C(c2ccc(N(CC)CC)cc2)c2ccc(N(CC)CC)cc2)c2ccccc21 | 1.01 µM |  |  | 1.13 µM |  | 1.11 µM | 1.18 µM | 0.0702 µM |  | 0.033 µM |  |  | 0.0422 µM |  |  |  | 0.0348 µM | 0.077 µM | 0.0233 µM
27 | CC(Oc1ccccc1Cl)C(=O)NN1C(=O)CSC1c1ccccc1 (stereo not given) | > 100 µM | > 100 µM | > 100 µM | > 100 µM | > 100 µM | > 100 µM | > 100 µM | > 100 µM | > 100 µM |  |  |  |  |  |  |  |  |  | 
28 | CC(C)[C@H](NC(=O)[C@H](C(C)C)N(Cc1ccccc1)Cc1ccccc1)C(=O)N(C)[C@H](C(=O)N1CCC[C@H]1C(=O)N(C)[C@H](C)C(=O)NCc1ccc(Cl)cc1)C(C)C (Bn2Val-V[NMeV]P[dNMeA]-{NH(4-Cl-benzyl)}) | 3.54 µM | 11.8 µM | > 100 µM | > 100 µM | > 100 µM | 20.1 µM | > 100 µM | > 100 µM |  |  |  |  |  |  |  | > 29.7 µM |  |  | 
29 | CC(C)(C)[Si](C)(C)OCc1cccc(OCCOc2cccc(CO[Si](C)(C)C(C)(C)C)c2[N+](=O)[O-])c1[N+](=O)[O-] | > 100 µM |  | > 100 µM | > 100 µM | > 100 µM | > 100 µM | > 100 µM |  |  |  |  |  |  |  |  | > 100 µM |  |  | 
30 | CC1(C)CC2(CC(C)(C)N1O)NC(=O)OC2=O | > 100 µM |  | > 100 µM |  | > 100 µM | > 100 µM | > 100 µM | > 100 µM | > 100 µM |  |  |  |  |  |  | > 100 µM |  |  | 
31 | O=[N+]([O-])c1cccc(N=Nc2c(O)c(S(=O)(=O)O)cc3cc(S(=O)(=O)O)ccc23)c1 |  | > 100 µM | > 100 µM | > 100 µM | > 100 µM | > 100 µM | > 100 µM |  | > 100 µM |  |  |  |  |  |  | > 100 µM |  |  | 
32 | c1ccc(/C(=N/Nc2ccncn2)c2ccccn2)cc1 | > 100 µM | > 100 µM | 49.2 µM |  | 93 µM | > 100 µM | > 100 µM | > 100 µM | > 100 µM |  |  |  |  |  |  |  |  |  | 
33 | CC(=O)Nc1ccc(OC/C(N)=N/NC(=O)c2ccncc2)cc1 | > 100 µM | > 100 µM | > 100 µM | > 100 µM | > 100 µM | > 100 µM | > 100 µM | > 100 µM | > 100 µM |  |  |  |  |  |  |  |  |  | 
